In US12617777B2, “GPR84 antagonists and uses thereof” (Liminal BioSciences Limited, priority 2021, dated 2026):

target: T1, human GPR84 receptor (Homo sapiens, UniProt Q9NQS5); assay: Gαi biosensor BRET assay in HEK293 cells (antagonism of ZQ-16); format: cell-based; settings: HEK293, single concentration 2 μM (designated A)
T1 construct: host or cells: HEK293, transient transfection
Outline: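 HEK293 cells transiently expressing human GPR84, Gαi2-Rluc8, GFP10-Gγ2 and Gβ1, in Tyrode's buffer pH 7.5. Compounds preincubated 5 min at 37° C, then 200 nmol/L ZQ-16 for 5 min at room temperature; coelenterazine 400A 5 μmol/L. BRET2 acceptor/donor ratio, background- and vehicle-corrected net BRET.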

T1 sequence (Q9NQS5 whole entry): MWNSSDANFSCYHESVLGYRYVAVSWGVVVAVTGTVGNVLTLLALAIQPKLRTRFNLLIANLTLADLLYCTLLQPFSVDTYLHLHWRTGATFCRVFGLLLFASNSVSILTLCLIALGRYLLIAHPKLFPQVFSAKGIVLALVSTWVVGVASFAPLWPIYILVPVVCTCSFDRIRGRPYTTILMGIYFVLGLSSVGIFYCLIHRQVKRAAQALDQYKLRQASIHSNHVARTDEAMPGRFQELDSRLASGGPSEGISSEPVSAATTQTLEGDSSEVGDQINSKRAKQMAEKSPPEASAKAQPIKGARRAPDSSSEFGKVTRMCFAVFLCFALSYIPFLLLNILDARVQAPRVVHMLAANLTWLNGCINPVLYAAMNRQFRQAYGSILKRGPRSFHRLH

| Compound | inhibition at 2 µM [%] |
| --- | --- |
| COC1CCN(c2ccc(-c3cn(CC4CCCCO4)nn3)c(C)c2)C1 (stereo not shown) [Compound I-463] | ≤ 25 |
| CC1(C)COC(Cn2cnc(-c3ncc(C#CC4CC4)cc3OC3CC3)c2)OC1 [Compound I-831] | > 75 |
| CN(c1ccc(C#N)cc1)c1cn(CC2OCC(C)(C)CO2)nn1 [Compound I-793, 4-((1-((5,5-dimethyl-1,3-dioxan-2-yl)methyl)-1H-1,2,3-triazol-4-yl)(methyl)amino)benzonitrile] | > 75 |
| CC1(C)CCC(Cn2cc(-c3ncc(C#CC4CC4)cc3OC3CC3)nn2)OC1 (stereo not shown) [Compound I-739] | > 75 |
| CN(C)c1cc(N2CC(C)(CO)C2)c(F)cc1-c1cn(CC2OCC(C)(C)CO2)nn1 [Compound I-711] | > 75 |
| Cc1cc(C#CC2CC2)cnc1-c1cn(CC2OCC3(CCC3)CO2)nn1 [Compound I-840] | > 75 |
| CC1(C)COC(Cn2cc(-c3ccc(N4CC(C)(CO)C4)cc3CC(F)(F)F)nn2)OC1 [Compound I-735] | > 75 |

same assay, conditions: HEK293, single concentration 3.3 μM (designated C)

| Compound | inhibition at 3.3 µM [%] |
| --- | --- |
| Cc1cc(N2CC(C)(C)C2)ccc1-c1cn(C[C@H]2CCCCO2)nn1 [Compound I-253] | > 75 |

same assay, conditions: HEK293, single concentration 10 μM (designated F)

| Compound | inhibition at 10 µM [%] |
| --- | --- |
| Cc1cc(N2CC(C)(C)C2)ccc1-c1cn(CC2OCC(F)(F)CO2)nn1 [Compound I-687] | 50 to 75 |
| CCc1cc(C#CC2CC2)cnc1-c1cn(CC2CCOCC2)nn1 [Compound I-274] | 50 to 75 |
| Cc1cc(N2CC3(CN(Cc4ccccn4)C3)C2)ccc1-c1cn(CC2CCCCO2)nn1 (stereo not shown) [Compound I-429] | 25 to 50 |
| Cc1cc(N2CC(N(C)Cc3ccccc3)C2)ccc1-c1cn(CC2CCCCO2)nn1 (stereo not shown) [Compound I-185] | ≤ 25 |
| Cc1cc(N2CC(C)(C#N)C2)ccc1-c1cn(CC2CCCCO2)nn1 (stereo not shown) [Compound I-495] | 25 to 50 |
| Cc1cc(C#CC2CC2)ccc1-c1ncn(CC2CCCCO2)c1C (stereo not shown) [Compound I-339] | 25 to 50 |
| Cc1cc(C#CC2CC2)cnc1-c1cn(CC2OCCCO2)nn1 [Compound I-414] | 50 to 75 |
| Cc1cc(C#CC2CC2)ccc1-c1cn(CC2COCCN2)nn1 (stereo not shown) [Compound I-515] | ≤ 25 |
| Cc1ccc(C#CC2CC2)cc1Cc1cn(CC2CCc3ccccc3O2)nn1 (stereo not shown) [Compound I-551] | 25 to 50 |
| CN(C)c1cc(N2CC3(COC3)C2)c(F)cc1-c1cn(CC2OCC(C)(C)CO2)nn1 [Compound I-849] | > 75 |
| COC(c1cn(CC2CCCCO2)nn1)c1cc(C#CC2CC2)ccc1C(F)(F)F (stereo not shown) [Compound I-655] | 50 to 75 |
| Cc1cc(C#CC2CC2)ccc1-c1cn(CC2CCCCS2(=O)=O)nn1 (stereo not shown) [Compound I-248] | ≤ 25 |
| Cc1cc(N2CC3(CCN(C(=O)c4ccccc4)CC3)C2)ccc1-c1cn(CC2CCCCO2)nn1 (stereo not shown) [Compound I-310] | 50 to 75 |
| Cc1cc(C#CC2CC2)ccc1-c1cnn(CC2CCCCO2)c1C (stereo not shown) [Compound I-327] | ≤ 25 |
| Cc1cc(C#CCNC(=O)OC(C)C)cnc1-c1cn(CC2CCCCO2)nn1 (stereo not shown) [Compound I-570, isopropyl (3-(5-methyl-6-(1-((tetrahydro-2H-pyran-2-yl)methyl)-1H-1,2,3-triazol-4-yl)pyridin-3-yl)prop-2-yn-1-yl)carbamate] | > 75 |
| Cc1cc(C#CCO)ccc1-c1cn(CC2OCC(F)(F)CO2)nn1 [Compound I-692] | 50 to 75 |
| Cc1cc(C#CC2CC2)ccc1-c1nnc(CC2CCCCO2)o1 (stereo not shown) [Compound I-342, 2-(4-(cyclopropylethynyl)-2-methylphenyl)-5-((tetrahydro-2H-pyran-2-yl)methyl)-1,3,4-oxadiazole] | ≤ 25 |
| CC(=O)NC(C)(C)COc1ccc(-c2cn(CC3CCCCO3)nn2)c(C)c1 (stereo not shown) [Compound I-265] | 25 to 50 |
| Cc1cc(C#CC2COC2)ccc1-c1cn(CC2CCCCO2)nn1 (stereo not shown) [Compound I-576] | 50 to 75 |
| C=C(c1cn(C[C@H]2CCCCO2)nn1)c1cccc(C#CC2CC2)c1C [Compound I-742] | > 75 |
| COC(C)Cn1cc(-c2ccc(C#CCNc3ccccc3)cc2C)nn1 (stereo not shown) [Compound I-162] | 25 to 50 |
| OCC#Cc1cnc(-c2cn(CC3OCC4(CC4)CO3)nn2)c(OC2CC2)c1 [Compound I-839] | > 75 |
| Cc1cc(N2CC(Nc3cnn(C)c3)C2)ccc1-c1cn(CC2CCCCO2)nn1 (stereo not shown) [Compound I-541] | 25 to 50 |
| Cc1cc(C#CC2CC2)ccc1-c1cn(Cc2ncco2)nn1 [Compound I-143] | ≤ 25 |
| C(#CC1CC1)c1csc(-c2cn(CC3CCCCO3)nn2)n1 (stereo not shown) [Compound I-241] | ≤ 25 |
| Cc1cc(N2CC3(CCN(C)C3)C2)ccc1-c1cn(CC2CCCCO2)nn1 (stereo not shown) [Compound I-168] | ≤ 25 |
| Cc1cc(N2CCC2)ccc1-c1cn(CC2CCCCO2)nn1 (stereo not shown) [Compound I-157] | 50 to 75 |

| Compound | inhibition at 10 µM [%] |
| --- | --- |
| Cc1c(-c2ccc(C#CC3CC3)cc2)nnn1CC1CCCO1 (stereo not shown) [Compound I-115] | ≤ 25 |
| Cc1cc(C#CC2CC2)ccc1-c1cn(CC2CCCCN2S(C)(=O)=O)nn1 (stereo not shown) [Compound I-191] | ≤ 25 |
| CN(C)Cc1cc(C#CC2CC2)ccc1-c1cn(CC2CCCCO2)nn1 (stereo not shown) [Compound I-356] | 25 to 50 |
| Cc1cc(N2CCN([C@H](C)c3ccccn3)CC2)ccc1-c1cn(C[C@H]2CCCCO2)nn1 [Compound I-611] | 25 to 50 |
| Cc1cc(C#CCNC(=O)OC(C)C)ccc1-c1cn(CC2CCCCO2)nn1 (stereo not shown) [Compound I-616] | > 75 |
| Cc1cc(C#CCNc2ccccc2)ccc1-c1cn(Cc2ccccn2)nn1 [Compound I-137] | ≤ 25 |
| CCOCC#Cc1cnc(-c2cn(CC3OCC(C)(C)CO3)nn2)c(OC2CC2)c1 [Compound I-819] | > 75 |
| Cc1cc(N2CCN(C3(c4ccccn4)CC3)CC2)ccc1-c1cn(CC2CCCCO2)nn1 (stereo not shown) [Compound I-613] | ≤ 25 |
| Cc1cc(N2CC(C)(OCc3ccccn3)C2)c(F)cc1-c1cn(CC2CCCCO2)nn1 (stereo not shown) [Compound I-731] | > 75 |
| N#CCc1cc(C#CC2CC2)ccc1-c1cn(CC2CCCCO2)nn1 (stereo not shown) [Compound I-217] | 25 to 50 |
| Cc1cc(C#CC2CC2)ccc1-c1cn(Cc2ncccn2)nn1 [Compound I-262] | 50 to 75 |
| Cc1cc(C#CC2CC2)sc1-c1cn(CC2CCCCO2)nn1 (stereo not shown) [Compound I-116] | 25 to 50 |
| FC(F)c1cc(C#CC2CC2)ccc1-c1cn(CC2CCCCO2)nn1 (stereo not shown) [Compound I-560] | 25 to 50 |
| Cc1cc(N2CC(C)(N(C)C)C2)ccc1-c1cn(CC2CCCCO2)nn1 (stereo not shown) [Compound I-470] | ≤ 25 |
| Cc1cc(N2CCN(Cc3ccccn3)CC2)ccc1-c1cn(CC2OCC(C)(C)O2)nn1 (stereo not shown) [Compound I-603] | 50 to 75 |
| Cc1cc(N2CC(C)(Nc3ccccc3)C2)ccc1-c1cn(CC2CCCCO2)nn1 (stereo not shown) [Compound I-537, 3-methyl-1-(3-methyl-4-(1-((tetrahydro-2H-pyran-2-yl)methyl)-1H-1,2,3-triazol-4-yl)phenyl)-N-phenylazetidin-3-amine] | > 75 |
| Cc1cc(C#CCNC(=O)Oc2ccccc2)ccc1-c1cn(CC2CCCCO2)nn1 (stereo not shown) [Compound I-619] | > 75 |
| Cc1ccc(C#CCNCc2ccccc2)cc1-c1cn(CC2CCCCO2)nn1 (stereo not shown) [Compound I-201] | ≤ 25 |
| CCn1cc(-c2ccc(-c3cn(CC4CCCCO4)nn3)c(C)c2)cn1 (stereo not shown) [Compound I-194] | ≤ 25 |
| C(#CC1CC1)c1ccc(-c2cn(CC3OCC4(CCC4)O3)nn2)c(OC2CC2)c1 (stereo not shown) [Compound I-798] | > 75 |
| Cc1cc(N2CC(C)(C)C2)cnc1-c1cn(CC2CCCCO2)cn1 (stereo not shown) [Compound I-609] | 50 to 75 |
| Cc1cc(C#CCN2CC(C)(C)C2)cnc1-c1nnn(CC2OCC(C)(C)CO2)n1 [Compound I-835] | ≤ 25 |
| Cc1cc(C#CCN)ccc1-c1cn(CC2OCC(C)(C)CO2)nn1 [Compound I-690] | 25 to 50 |
| COC(c1cccc(C#CCO)c1)c1cn(CC2CCCCO2)nn1 (stereo not shown) [Compound I-491] | ≤ 25 |
| CNC1(C)CN(c2ccc(-c3cn(CC4CCCCO4)nn3)c(C)c2)C1 (stereo not shown) [Compound I-506] | 50 to 75 |
| Cc1cc(N2CC3CCC(C2)N3Cc2ccccn2)ccc1-c1cn(CC2CCCCO2)nn1 (stereo not shown) [Compound I-466] | ≤ 25 |
| Cc1cc(C2CCN(Cc3ccccn3)CC2)cnc1-c1cn(CC2CCCCO2)nn1 (stereo not shown) [Compound I-482] | ≤ 25 |

same assay, conditions: HEK293, single concentration 25 μM (designated I)

| Compound | inhibition at 25 µM [%] |
| --- | --- |
| Cc1ncn(CC2CCCCO2)c1-c1ccc(C#CC2CC2)cc1 (stereo not shown) [Compound I-335] | 25 to 50 |
| CC(C)(C)C#Cc1ccc(-c2cn(CC3CCCCO3)nn2)cc1 (stereo not shown) [Compound I-58] | ≤ 25 |
| COC(Cn1cc(-c2ccc(C#CC3CC3)cc2C)nn1)c1ccccc1 (stereo not shown) [Compound I-73] | ≤ 25 |
| Cc1ccc(-c2ccc(-c3cn(C[C@H]4COc5ccccc5O4)nn3)cc2)cn1 [Compound I-26] | ≤ 25 |
| C(#CC1CC1)c1ccc(-c2cn(CC3CCCCO3)nn2)cn1 (stereo not shown) [Compound I-35] | ≤ 25 |
| Cc1cc(C#CC2CC2)ccc1-c1cn(CC(C)Oc2ccccc2)nn1 (stereo not shown) [Compound I-72] | ≤ 25 |

same assay, conditions: HEK293 cells, antagonism of 200 nmol/L ZQ-16

| Compound | IC50 [nM] |
| --- | --- |
| Cc1cc(C#CC2CC2)cnc1-c1cn(CC2CCCCO2)nn1 (stereo not shown) [Compound I-866] | 1000 to 3000 |
| Cc1cc(N2CC3(CCN(C(=O)c4ccccc4)CC3)C2)ccc1-c1cn(CC2CCCCO2)nn1 (stereo not shown) [Compound I-310] | 1000 to 3000 |
| Cc1cc(C#CCNC(=O)OC(C)C)cnc1-c1cn(CC2CCCCO2)nn1 (stereo not shown) [Compound I-570, isopropyl (3-(5-methyl-6-(1-((tetrahydro-2H-pyran-2-yl)methyl)-1H-1,2,3-triazol-4-yl)pyridin-3-yl)prop-2-yn-1-yl)carbamate] | > 3000 |
| Cc1cc(C#CCNC(=O)c2ccccc2)ccc1-c1cn(CC2CCCCO2)nn1 (stereo not shown) [Compound I-209] | > 2000 |
| CC1(C)COC(Cn2cnc(-c3ncc(C#CC4CC4)cc3OC3CC3)c2)OC1 [Compound I-831] | ≤ 300 |
| CC1(C)CCC(Cn2cc(-c3ncc(C#CC4CC4)cc3OC3CC3)nn2)OC1 (stereo not shown) [Compound I-739] | ≤ 300 |
| CC1(C)CN(CC#Cc2cnc(-c3cn(CC4OCC5(CCC5)O4)nn3)c(OC3CC3)c2)C1 (stereo not shown) [Compound I-764] | 300 to 1000 |
| Cc1cc(N2CC(C)(C)C2)ccc1-c1cn(C[C@H]2CCCCO2)nn1 [Compound I-253] | ≤ 300 |
| Cc1cc(C#CCNC(=O)OC(C)C)ccc1-c1cn(CC2CCCCO2)nn1 (stereo not shown) [Compound I-616] | > 3000 |
| CCOCC#Cc1cnc(-c2cn(CC3OCC(C)(C)CO3)nn2)c(OC2CC2)c1 [Compound I-819] | ≤ 300 |
| Cc1cc(N2CC(C)(OCc3ccccn3)C2)c(F)cc1-c1cn(CC2CCCCO2)nn1 (stereo not shown) [Compound I-731] | 300 to 1000 |
| Cc1cc(N2CCN(Cc3ccccn3)CC2)ccc1-c1cn(CC2OCC(C)(C)O2)nn1 (stereo not shown) [Compound I-603] | > 3000 |
| Cc1cc(N2CC(C)(Nc3ccccc3)C2)ccc1-c1cn(CC2CCCCO2)nn1 (stereo not shown) [Compound I-537, 3-methyl-1-(3-methyl-4-(1-((tetrahydro-2H-pyran-2-yl)methyl)-1H-1,2,3-triazol-4-yl)phenyl)-N-phenylazetidin-3-amine] | 300 to 1000 |
| Cc1cc(C#CCNC(=O)Oc2ccccc2)ccc1-c1cn(CC2CCCCO2)nn1 (stereo not shown) [Compound I-619] | ≤ 300 |
| Cc1cc(N2CC(C)(C)C2)cnc1-c1cn(CC2CCCCO2)cn1 (stereo not shown) [Compound I-609] | > 3000 |
| CN(C)c1cc(N2CC(C)(CO)C2)c(F)cc1-c1cn(CC2OCC(C)(C)CO2)nn1 [Compound I-711] | ≤ 300 |
| CC1(C)COC(Cn2cc(-c3ccc(N4CC(C)(CO)C4)cc3CC(F)(F)F)nn2)OC1 [Compound I-735] | ≤ 300 |
